{"source": "patent US20050261298A1", "about": "“Methods of treating conditions associated with an Edg-7 receptor” (priority 2002, published 2005)", "key": {"Edg-2": {"biological_target": "T1, Edg-2 (Homo sapiens, UniProt Q92633)", "T1 construct": "expressed in transfected cells; host or cells: HTC rat hepatoma cells", "T1 sequence (Q92633 whole entry)": "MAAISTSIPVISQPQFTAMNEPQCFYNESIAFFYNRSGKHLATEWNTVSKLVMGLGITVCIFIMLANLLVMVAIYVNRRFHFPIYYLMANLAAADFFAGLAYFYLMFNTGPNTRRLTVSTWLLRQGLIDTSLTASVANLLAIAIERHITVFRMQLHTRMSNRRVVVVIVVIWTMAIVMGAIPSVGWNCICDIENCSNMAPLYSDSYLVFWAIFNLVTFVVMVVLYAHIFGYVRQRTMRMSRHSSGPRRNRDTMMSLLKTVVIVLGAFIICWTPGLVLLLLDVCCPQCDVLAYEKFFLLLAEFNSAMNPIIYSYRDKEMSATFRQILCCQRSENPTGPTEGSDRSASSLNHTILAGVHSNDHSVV", "assay": "Calcium mobilization assay (FLIPR), inhibition of LPA-stimulated calcium increase", "type": "cell-based", "settings": "HTC cells expressing Edg-2"}, "Edg-5": {"biological_target": "T2, Edg-5 (Homo sapiens, UniProt O95136)", "T2 construct": "expressed in transfected cells; host or cells: HTC rat hepatoma cells", "T2 sequence (O95136 whole entry)": "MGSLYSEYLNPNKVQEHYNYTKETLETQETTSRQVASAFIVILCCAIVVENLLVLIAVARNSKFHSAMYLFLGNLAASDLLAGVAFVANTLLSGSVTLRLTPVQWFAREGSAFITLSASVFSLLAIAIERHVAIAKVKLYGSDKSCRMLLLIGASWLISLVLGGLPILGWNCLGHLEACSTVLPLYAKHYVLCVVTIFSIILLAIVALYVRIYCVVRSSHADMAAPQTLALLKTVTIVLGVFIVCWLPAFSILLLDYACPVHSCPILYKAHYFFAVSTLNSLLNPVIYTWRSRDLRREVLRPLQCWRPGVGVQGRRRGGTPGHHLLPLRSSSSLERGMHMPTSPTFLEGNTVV", "assay": "Calcium mobilization assay (FLIPR), inhibition of S1P-stimulated calcium increase", "type": "cell-based", "settings": "HTC cells expressing Edg-5"}, "Edg-6": {"biological_target": "T3, Edg-6 (Homo sapiens, UniProt O95977)", "T3 construct": "expressed in transfected cells; host or cells: HTC rat hepatoma cells", "T3 sequence (O95977 1-384)": "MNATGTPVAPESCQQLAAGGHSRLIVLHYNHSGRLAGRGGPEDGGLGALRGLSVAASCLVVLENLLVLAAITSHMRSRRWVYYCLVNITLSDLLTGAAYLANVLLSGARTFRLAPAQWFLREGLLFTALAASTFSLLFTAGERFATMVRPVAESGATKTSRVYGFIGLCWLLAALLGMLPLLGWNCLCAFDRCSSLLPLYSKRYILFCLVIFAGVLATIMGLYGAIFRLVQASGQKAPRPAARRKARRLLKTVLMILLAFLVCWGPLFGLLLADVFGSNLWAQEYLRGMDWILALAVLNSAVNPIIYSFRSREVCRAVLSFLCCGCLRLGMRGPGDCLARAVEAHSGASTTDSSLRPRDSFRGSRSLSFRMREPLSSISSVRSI", "assay": "Calcium mobilization assay (FLIPR), inhibition of S1P-stimulated calcium increase", "type": "cell-based", "settings": "HTC cells expressing Edg-6"}, "human Edg 7 receptors": {"biological_target": "T4, human Edg 7 receptors (Homo sapiens, UniProt Q9UBY5)", "T4 construct": "expressed in transfected cells", "T4 sequence (Q9UBY5 1-353)": "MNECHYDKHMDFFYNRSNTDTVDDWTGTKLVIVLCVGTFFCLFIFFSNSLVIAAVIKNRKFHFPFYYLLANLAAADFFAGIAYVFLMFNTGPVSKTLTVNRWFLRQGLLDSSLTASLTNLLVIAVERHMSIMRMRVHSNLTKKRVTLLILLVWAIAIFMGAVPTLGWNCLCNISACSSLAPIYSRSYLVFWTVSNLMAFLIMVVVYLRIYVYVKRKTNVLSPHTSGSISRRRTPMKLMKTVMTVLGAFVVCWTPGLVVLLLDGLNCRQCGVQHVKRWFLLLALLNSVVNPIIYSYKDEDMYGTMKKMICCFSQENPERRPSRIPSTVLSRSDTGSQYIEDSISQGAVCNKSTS", "assay": "Calcium mobilization assay (FLIPR), inhibition of LPA response", "type": "cell-based", "procedure": "The compounds were tested in HTC cells expressing human Edg 7 receptors. […] The compounds are tested in this recombinant system first, and subsequently tested in cell lines expressing Edg-7 (in addition to other Edg receptors).\nThe radioligand binding assays were conducted as described in Section 6.15 (Example 15).\nLPA receptors such as Edg-7, couple to calcium effector pathways, and result in increases in intracellular calcium following receptor activation (An, 1998, J. Cell. Biochem Supp. 30-31:147-157). This biological response lends itself to a very efficient, high-throughput screen using a Fluorescence Imaging Plate Reader (FLIPR; Molecular Devices, Sunnyvale, Calif.). The FLIPR system is a real-time, cell-based assay system with continuous fluorescence detection using a cooled CCD camera. The FLIPR system was used to developing an Edg-7 receptor screen. Rat hepatoma cells stably expressing Edg-7 receptor were plated on 384-well plates and loaded with a calcium dye loading kit (Molecular Devices, Sunnyvale, Calif.) for 1 hour at room temperature. Cells were then placed on the FLIPR^384 (Molecular Devices, Sunnyvale, Calif.) and excited by an argon laser at […]. The data for the entire 384-well plate was updated every second. An integrated robotic pipettor allowed for simultaneous compound addition into each individual well in the plate"}, "[1]": {"test_system": "Calcium Channel Type L, Dihydropyridine", "assay": "Radioligand binding assay, 3H Nitrendipine", "design": "species or system Wistar Rat", "settings": "significance criteria ≧50% of max stimulation or inhibition", "procedure": "(§1) In order to test the selectivity of compounds, various enzyme assays as well as radioligand binding assays were performed using numerous non-Edg receptor targets as listed below.\n(§2) A radioligand binding assay was performed using adrenergic α1 according to the method of Greengrass and Bremner 1979, Eur. J. Pharmacol. 55:323-326. A radioligand binding assay was performed using adrenergic α2 according to the method of Boyajian and Leslie, 1987, J. Pharmacol. Exp. Ther. 241:1092-1098. A radioligand binding assay was performed using adrenergic β according to the method of Feve et al., 1994, Proc. Natl. Acad. Sci. USA 91:5677-5681. A radioligand binding assay was performed using angiotensin AT2 according to the method of Whitebread et al., 1991, Biochem. Biophys. Res. Comm. 181:1365-1371. A radioligand binding assay was performed using calcium channel Type L, dihydropyridine according to the method of Ehlert et al., 1982, Life Sci. 30:2191-2202. A radioligand binding assay was performed using dopamine D2L according to the method of Bunzo et al., 1988, Nature 336:783-787. A radioligand binding assay was performed using endothelin ETA according to the method of Mihara et al., 1994, J. Pharmacol. Exp Ther. 268:1122-1127. A radioligand binding assay was performed using histamine H1 Central according to the method of Hill et al., 1978, J. Neurochem. 31:997-1004. […]"}, "Dopamine D2L": {"biological_target": "T5, Dopamine D2L (Homo sapiens, UniProt P14416)", "T5 construct": "expressed in transfected cells; host or cells: CHO cells", "T5 sequence (P14416 whole entry)": "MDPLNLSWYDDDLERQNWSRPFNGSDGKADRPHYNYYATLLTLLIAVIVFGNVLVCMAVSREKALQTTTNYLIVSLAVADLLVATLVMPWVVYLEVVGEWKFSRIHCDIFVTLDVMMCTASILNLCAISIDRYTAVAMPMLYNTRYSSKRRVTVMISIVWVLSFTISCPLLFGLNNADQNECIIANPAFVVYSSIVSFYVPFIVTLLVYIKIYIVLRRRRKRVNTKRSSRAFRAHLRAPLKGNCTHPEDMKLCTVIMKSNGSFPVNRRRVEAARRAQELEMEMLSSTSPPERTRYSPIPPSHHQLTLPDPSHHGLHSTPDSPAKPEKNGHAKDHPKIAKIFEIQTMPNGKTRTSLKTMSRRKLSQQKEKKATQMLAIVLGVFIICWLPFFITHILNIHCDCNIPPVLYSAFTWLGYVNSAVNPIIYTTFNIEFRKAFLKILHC", "assay": "Radioligand binding assay, 3H Spiperone", "settings": "significance criteria ≧50% of max stimulation or inhibition", "procedure": "as §1, §2"}, "[2]": {"settings": "concentrations as high as 20 µM"}}}
{"compound": "CCOC(=O)c1c(NC(=O)NS(=O)(=O)c2ccccc2Cl)sc2c1CCCC2", "note": "[Compound 101]", "values": [{"measurement": "IC50", "setting": "Edg-2", "result": "> 20", "unit": "µM"}, {"measurement": "inhibition of LPA-stimulated calcium increases, Edg-2", "setting": "Edg-2; [2]", "result": "did not inhibit"}, {"measurement": "IC50", "setting": "Edg-5", "result": "> 20", "unit": "µM"}, {"measurement": "inhibition of S1P-stimulated calcium increases, Edg-5", "setting": "Edg-5; [2]", "result": "did not inhibit"}, {"measurement": "IC50", "setting": "Edg-6", "result": "> 20", "unit": "µM"}, {"measurement": "inhibition of S1P-stimulated calcium increases, Edg-6", "setting": "Edg-6; [2]", "result": "did not inhibit"}, {"measurement": "selective inhibition of the Edg-7 receptor (FIG. 1, FIG. 2)", "setting": "human Edg 7 receptors; HTC cells expressing Edg-7", "result": "specifically inhibit"}, {"measurement": "IC50", "setting": "human Edg 7 receptors; HTC cells expressing human Edg 7", "result": 1.59, "unit": "µM"}, {"measurement": "Fold Selectivity", "setting": "human Edg 7 receptors; inhibitory selectivity for Edg-7 relative to other Edg receptors", "result": ">12.6", "unit": "Fold"}, {"measurement": "activity in radioligand binding assay, Calcium Channels Type L, DHP", "setting": "[1]", "result": "no significant activity"}, {"measurement": "activity in radioligand binding assay, Dopamine D2L", "setting": "Dopamine D2L", "result": "no significant activity"}]}
